Source: patent US20260265675A1, “Methods for Enhanced Gene Expression in Microorganisms” (ALGAE-C INC., priority 2023, published 2026)

How the values were obtained:
Format in all cases: cell-based, Chlamydomonas reinhardtii
mVenus [1] = assay: mVenus expression after 6-day treatment with SAHA analogs and other HDAC inhibitors (96 well liquid culture, flow cytometry and plate reader); details: for expression of the transgene: mVenus transgene in Chlamydomonas reinhardtii, compared with other histone deacetylase inhibitors; for frequency of mVenus-positive cells / increase of amount of mVenus inside each cell (mean fluorescence intensity) / increase of frequency of mVenus-positive cells: day 3 post-treatment
Description: For the SAHA (vorinostat), belinostat, dacinostat, panobinostat, mocetinostat, entinostat, and romidepsin series of treatments (comparison between various SAHA analogs and other HDAC inhibitors), inoculums of 10^5 cells in late exponential phase of growth were transferred in 200 μL of TAP medium in 96 well plates and were treated with 5 μM of each histone deacetylase inhibitor for 6 days. DMSO was used as a negative control.
(§1) Growth curves were obtained using a Synergy H1 plate reader (Biotek, Agilent), from two or three biological replicates for each strain studied as in (Molino et al., 2022). For SAHA main treatments, 250 μL samples of 50 mL cultures were added in 96 well flat bottom microplates (Corning Costar 96-Well, Cell Culture-Treated, Fisher Scientifics). The OD absorbance was read at 750 nm. Bottom read scan mode mean fluorescence was measured with Excitation (Ex): 500 nm/Emission (Em): 541 nm for mVenus; and bottom read fluorescence Ex: 475 nm/Em: 650 nm for chlorophyll.
(§2) A Cytomics FC500 cytometer equipped with Argon (488 nm) and HeNe (633 nm) lasers were used to measure mVenus emission on the FL1 channel (525/15 nm), and chloroplast fluorescence on the FL4 channel (675/15 nm) (Beckman Coulter Life Sciences). At least 10 000 events were acquired. A homogeneous cloud of intact cells was first gated based on size (FSC) and granulosity (SSC). Then a daughter gate selected the cloud of cells with homogenous chlorophyll autofluorescence. The % of mVenus^+ cells was measured on this daughter population with a gate in the FL1 channel that excluded cells with autofluorescence levels similar to the negative controls. Cells were considered mVenus^+ when both the % of gated mVenus^+ cells (and >0.1%) and mVenus mean fluorescence intensity were higher than the values of the WT controls. Propidium iodide (Thermo Fisher) was used to verify viability and acquired on the FL3 channel (620/20 nm). To select for palmelloid cells, a second gate that included events with a minimum of 2-fold increase in FSC mean intensity was drawn, similarly to (Cheloni and Slaveykova, 2021). In that case, cells were acquired on a Beckman Cytoflex S equipped with violet (405 nm), blue (488 nm), yellow-green (561 nm) and red (638 nm) lasers. Chlorophyll autofluorescence was detected in the PerCP channel (690/50 nm), mVenus on the FITC (525/40BP). Statistics were obtained using BD FlowJo version 10 software (BD Biosciences, La Jolla, CA, USA, 2020).

C. reinhardtii [2] = assay: Chlorophyll content observed by culture colour at higher SAHA concentrations
mVenus mRNA = mVenus mRNA relative expression by RT-qPCR (normalized on histone H3); details: day 6
Description: 4 mL of a 6 days C. reinhardtii grown culture were harvested and centrifuged in Eppendorf tube for 5 min at 4000 g. Cells were lysed by immersion in liquid nitrogen for 1 min. Total RNA was extracted using Invitrogen™ TRIzol™ reagent (Life technologies, Thermo Fisher Scientifics) according to the manufacturer's protocol with minor modifications, including the addition of NaCl at a final concentration of 100 mM in the isopropanol at the nucleic acids precipitation step. Samples were further treated with Turbo DNase (Invitrogen™ TURBO DNA-free™ Kit, Thermo Fisher Scientifics) according to the manufacturer's instructions. RNA yield and quality were determined with 260 nm/280 nm absorbance ratio obtained on a Nanodrop instrument (Thermo Fisher Scientific). Samples of <100 ng total RNA were subjected to reverse transcription and qPCR amplification in a single reaction using the Luna® Universal One-Step RT-qPCR Kit Protocol (New England Biolabs Canada). Briefly, 1 μl of RNA were subjected to reverse transcription performed at 55° C. for 10 minutes. Initial denaturation was 1 min at 95° C. followed by 45 cycles of denaturation for 10 seconds, extension for 30 seconds at 60° C. […] SYBR Green fluorescence was recorded in the FAM channel of a CFX connect real time system (BioRad). […] Relative mRNA expression levels were determined according to the 2^(−ddCt) method.

mVenus [3] = assay: mVenus expression by flow cytometry after 24 h treatment with silencing inhibitors (96 well liquid culture)
Description: For the sirtinol, SAHA, OSS-128167, nicotinamide and sodium butyrate series of treatments (comparison between various HDAC inhibitors), inoculums of 10^5 cells in late exponential phase of growth were transferred in 200 μL of TAP medium in 96 well plates and were treated with 50 μM, 2.5 μM, 100 μM, 1 mM and 5 mM of each histone deacetylase inhibitor respectively for 24 hours; a mix of all inhibitors was also tested. DMSO was used as a negative control.
as §2

mVenus [4] = assay: mVenus expression followed over 12 days after SAHA treatment in flask cultures (microplate reader and flow cytometer)
Description: (§3) For the SAHA main treatments, inoculum of 10^5 cells in late exponential phase of growth were transferred in 50 mL of TAP medium in 125 mL shake flasks and were treated with 5 μM for 12 days (to evaluate mVenus expression overtime), or with 2.5, 5 and 10 μM for 6 days (to evaluate SAHA toxicity over cell viability). DMSO was used as a negative control.
as §1, §2

C. reinhardtii [5] = assay: Growth curve / growth kinetic (OD 750 nm)
Description: […] DMSO was used as a negative control.
as §1

mVenus [6] = assay: mVenus expression after one year of storage, 72 h treatment with histone deacetylase inhibitors (flow cytometry); details: SAHA 5 μM, cells stored for one year after transformation
Text: as §2, with “Statistics were obtained using BD FlowJo version 10 software (BD Biosciences, La Jolla, CA, USA, 2020).” left out

C. reinhardtii [7] = assay: Cell viability (membrane integrity) by propidium iodide staining, flow cytometry; details: SAHA 2.5, 5 and 10 μM, day 6
Description: as §3
as §2, with “To select for palmelloid cells, a second gate that included events with a minimum of 2-fold increase in FSC mean intensity was drawn, similarly to (Cheloni and Slaveykova, 2021). In that case, cells were acquired on a Beckman Cytoflex S equipped with violet (405 nm), blue (488 nm), yellow-green (561 nm) and red (638 nm) lasers.” left out, “Statistics were obtained using BD FlowJo version 10 software (BD Biosciences, La Jolla, CA, USA, 2020).” left out

C. reinhardtii [8] = assay: Palmelloid colony formation and motility (microscopy, flow cytometry)
Description: as §3, §2

[9] = SAHA 2.5 μM, transformed clones
[10] = SAHA 5 μM, compared to untreated or DMSO treated cells

O=C(/C=C/c1cccc(S(=O)(=O)Nc2ccccc2)c1)NO [Belinostat, (2E)-N-Hydroxy-3-[3-(phenylsulfamoyl)phenyl]prop-2-enamide]
expression of the transgene (mVenus [1]): substantially increase

O=C(/C=C/c1ccc(CN(CCO)CCc2c[nH]c3ccccc23)cc1)NO [Dacinostat, (E)-N-hydroxy-3-[4-[[2-hydroxyethyl-[2-(1H-indol-3-yl)ethyl]amino]methyl]phenyl]prop-2-enamide]
expression of the transgene (mVenus [1]): substantially increase

Cc1[nH]c2ccccc2c1CCNCc1ccc(/C=C/C(=O)NO)cc1 [Panobinostat, (2E)-N-hydroxy-3-[4-({[2-(2-methyl-1H-indol-3-yl)ethyl]amino}methyl)phenyl]acrylamide]
expression of the transgene (mVenus [1]): substantially increase

O=C(CCCCCCC(=O)Nc1ccccc1)NO [SAHA, N-hydroxy-N′-phenyloctanediamide]
chlorophyll content, culture colour (C. reinhardtii [2]; 80 μM SAHA): red tint | chlorophyll content, culture colour (C. reinhardtii [2]; 20 and 40 μM SAHA): more yellow tint | increase of relative mVenus mRNA expression over histone H3 mRNA (mVenus mRNA; clone 16, SAHA 5 μM): 7 fold | increase of relative mVenus mRNA expression over histone H3 mRNA (mVenus mRNA; clone 17, SAHA 5 μM): 6.6 fold | frequency of cells expressing mVenus (mVenus [3]; [9]): increased | level of expression of mVenus per cell (mVenus [3]; [9]): increased | % of mVenus cells (mVenus [3]; clone 16, SAHA 2.5 μM): 68.1% | increase in protein expression (mean fluorescence intensity) (mVenus [3]; clone 16, SAHA 2.5 μM): 4.6 fold | increase of % of mVenus cells (mVenus [3]; clone 16, SAHA 2.5 μM, versus 13.3% without SAHA): 5.1 fold | mVenus fluorescence (mVenus [4]; SAHA 5 μM at day 0, around day 4-5, all clones): steadily increased | transgene expression over culture period (mVenus [4]; SAHA 5 μM, 12 days, flask cultures): steadily increases | decline in mVenus production in stationary phase (mVenus [4]; SAHA 5 μM, around day 7-8): did not prevent the progressive decline in production | mVenus fluorescence per cell at day 12 (mVenus [4]; [10]): more mVenus fluorescence per cells | population of mVenus expressing cells at day 12 (mVenus [4]; [10]): more frequent population of mVenus expressing cells | % of producing cells (mVenus+) at maximum production (mVenus [4]; SAHA 5 μM, day 5-7, all the clones): more than 74% | time of maximum production of mVenus (mVenus [4]; SAHA 5 μM, end of the exponential phase): 5 to 7 days | % mVenus+ cells at day 12 (mVenus [4]; SAHA 5 μM, most clones (except 16)): < 10% | frequency of mVenus-positive cells (mVenus [1]; clone 16, 5 μM): 73.1% | increase of amount of mVenus inside each cell (mean fluorescence intensity) (mVenus [1]; clone 16, 5 μM): 3-4 fold | increase of frequency of mVenus-positive cells (mVenus [1]; clone 16, 5 μM): 8.6 fold | frequency of mVenus-positive cells (mVenus [1]; clone 17, 5 μM): 59.9% | increase of amount of mVenus inside each cell (mean fluorescence intensity) (mVenus [1]; clone 17, 5 μM): 2-5 fold | increase of frequency of mVenus-positive cells (mVenus [1]; clone 17, 5 μM): 27 fold | expression of the transgene (mVenus [1]): substantially increase | growth kinetic (C. reinhardtii [5]; 80 μM SAHA): totally inhibited | growth kinetic (C. reinhardtii [5]; 20 and 40 μM SAHA): inhibited partially | overall growth of microalgae (C. reinhardtii [5]; SAHA 5 μM, 12 days): did not impact the overall growth | frequency of cells expressing mVenus (mVenus [6]): increased | % of PI+ cells (C. reinhardtii [7]): slightly increased | % of transformant cells remaining intact (C. reinhardtii [7]): ~ 90% | palmelloid colonies quantified by flow cytometry (C. reinhardtii [8]; SAHA 5 μM, day 3 and 6 post-treatment, in most cases): increased | palmelloid colonies (microscopy) (C. reinhardtii [8]; SAHA 5 and 10 μM, 6 days): accumulation of small palmelloid colonies | palmelloid colonies (microscopy) (C. reinhardtii [8]; SAHA 20, 40 and 80 μM, increasing concentrations): Larger palmelloid colonies | motility (C. reinhardtii [8]; SAHA above 2.5 μM): progressively lost | phenotype induced in C. reinhardtii (C. reinhardtii [8]; SAHA, FIG. 6): induces a palmelloid phenotype
